How the values were obtained:
THP1-STING-R232 cells [1] = experiment: IFNβ ELISA; assay type: cell-based, human; conditions: THP1-STING-R232, 5 h, vs ADU-S100
Protocol: (§1) Figure 2 SHR1032 specifically and potently activates STING signaling pathway. IRF luciferase reporter assays in (a) THP1-STING-R232, THP1-STING-H232, THP1-STING-HAQ, and THP1-STING-KO cells. Cells were stimulated for 24 h with the indicated STING compounds and assessed for luciferase activity. IFNβ production and activation of cGAS-STING signaling pathway in (b) human THP1-STING-R232, human PBMCs from a donor homozygous for the R232 variant, cynomolgus PBMC, and mouse RAW164.7 macrophage cells were treated with STING agonists for 5 h. IFNβ in media was quantified by human or mouse ELISA kits respectively. (c) THP1-STING-R232 cells and mouse RAW164.7 macrophage cells were stimulated with 40 µM of ADU-S100 or 10 µM of SHR1032 for the indicated time points. The amount of pTBK1, total TBK1, STING and α-tubulin was measured by western blotting.
Human and Cynomolgous PBMC’s were thawed and spun down in Lymphocyte media (ZENBIO) and resuspended in media to 1.5 x 10^6 cells/ml density. […] Human and monkey IFN-β protein concentration was measured using human IFN-β Quantikine ELISA Kits (R&D Systems) per manufacture’s protocol. Mouse IFN-β was measured using mouse IFN-β Quantikine ELISA Kits (R&D Systems) per manufacture’s protocol. Mouse TNFα, IFN-β and IL-6 in the tumor lysates and plasma was measured by Quantikine ELISA Kits (R&D Systems) per manufacture’s protocol.

[2] = test system: MC38 mouse syngeneic colorectal adenocarcinoma; experiment: MC38 syngeneic tumor model; assay type: in vivo, C57BL/6 mouse
Protocol: Figure 3 Robust cytokine induction and antitumor effects in vivo. (a,b) C57BL/6 mice were inoculated with mouse MC38 colon cancer cells in the left flank. When tumor volumes were 100 mm^3, they received intratumoral (IT) dose of 100 µg of SHR1032 on day 1, 5, 8 and 12 or IT dose of 50 µg ADU-S100 on day 1, 5, and 8, or vehicle, respectively. (a) Tumor volume was measured at different time points. Results are shown as mean tumor volume ± sem. (n = 8 animals per group). (b) Mouse bodyweight was measured at different time points. (c–f) C57BL/6 mice were inoculated with mouse MC38 colon cancer cells in the left flank. When tumor volumes were 100 mm^3, they received one IT dose of 100 µg of SHR1032 or 50 µg ADU-S100, or vehicle. (c) IFNβ, (d) IL-6 and (e) TNFα from both tumor and plasma was measured by ELISA 4 h after. (f) SHR1032 compound concentration in tumors were measured.
(§2) Human and Cynomolgous PBMC’s were thawed and spun down in Lymphocyte media (ZENBIO) and resuspended in media to 1.5 x 10^6 cells/ml density. Mouse RAW 264.7 cells were detached from the flask and resuspended in media to 1.5 x 10^6 cells/ml density. Then, 100 µl of media containing the cells was added to each well of a 96-well plate containing compound in 50 µl of media. Plates were incubated for 5 h at 37 °C and supernatant was collected for ELISA analysis. Human and monkey IFN-β protein concentration was measured using human IFN-β Quantikine ELISA Kits (R&D Systems) per manufacture’s protocol. Mouse IFN-β was measured using mouse IFN-β Quantikine ELISA Kits (R&D Systems) per manufacture’s protocol. Mouse TNFα, IFN-β and IL-6 in the tumor lysates and plasma was measured by Quantikine ELISA Kits (R&D Systems) per manufacture’s protocol.
Female C57BL/6 mice, aged between 8 and 10 weeks old, were purchased from Charles River Lab. MC38 mouse colorectal cancer cells were resuspended as single cell solution in PBS at a concentration of 5 × 10^6 cells/ml. One hundred µl of cell suspension were implanted in the right flank of mice subcutaneously. Tumor size was measured by a caliper in three dimensions and its volume was then calculated according to the following formula: Tumor Volume (mm^3) = l * w * h * 0.5236, where l = length, w = width and h = height in mm for a tumor. When the average tumor volume reached around 100 mm^3, the mice were randomly assigned into three groups (n = 8) and each group of mice received one regimen. This day was assigned as day 0 for the study. […] Tumor volume and body weight were measured 3 times per week throughout the study. […] Cytokines and SHR1032 concentration in the plasma and tumor tissues were analyzed. […]

THP1-STING-R232 cells [3] = experiment: Western blot of TBK1 phosphorylation; assay type: cell-based, human; conditions: 10 µM SHR1032 vs 40 µM ADU-S100
Protocol: as §1
THP1 reporter cells were treated for 24 h with a total of 100 k cells and 150 ul media in each well a 96-well plate. […] Luminescence signal was measured using Tecan infinite M1000. EC50 values were calculated using non-linear regression analysis of GraphPad Prism. Cell growth was monitored by CellTiter-Glo Luminescent Cell Viability Assay (Promega) per manufacture’s protocol. GI50 values were calculated using non-linear regression analysis of GraphPad Prism. […]

MOLM-16 cells = experiment: IFNβ ELISA; assay type: cell-based, human; conditions: MOLM-16, 5 hrs, compared to THP1 cells
Protocol: as §2
(§3) Figure S2. IFNβ measurement in MV4-11, MOLM-16 and THP1-STING-R232 cells treated with SHR1032 for 5 hrs.

MV4-11 cells = experiment: IFNβ ELISA; assay type: cell-based, human; conditions: MV4-11, 5 hrs, compared to THP1 cells
Protocol: as §2, §3

CCn1nc(C)cc1C(=O)Nc1nc2cc(C(N)=O)cc(OC)c2n1CCC[C@H]1COc2cc(C(N)=O)cc3nc(NC(=O)c4cc(C)nn4CC)n1c23 [SHR1032] was tested, and the IFNβ induction (THP1-STING-R232 cells [1]) was “much higher level of IFNβ”, the tumor growth inhibition ([2]; 100 µg intratumorally on day 1, 5, 8 and 12, compared to the control group) was 78% and the mouse pharmacokinetic properties ([2]; intratumoral, mouse) was “favorable mouse pharmacokinetic properties”. The “IFNβ, IL-6 and TNFα induction in tumor and plasma” value ([2]; one IT dose of 100 µg, 4 h post dosing, ELISA) was “induced all the three cytokines in both tumors and plasma”, the TBK1 phosphorylation (THP1-STING-R232 cells [3]) was “higher level of TBK1 phosphorylation than ADU-S100” and the IFNβ production (MOLM-16 cells) was “produced IFNβ, but with a level much lower than that in THP1 cells”. The IFNβ production (MV4-11 cells) was “produced IFNβ, but with a level much lower than that in THP1 cells”.

Source: publication PMC9122897, “SHR1032, a novel STING agonist, stimulates anti-tumor immunity and directly induces AML apoptosis” (Scientific Reports, 2022)
